Emission maximum data for 44 compounds are collected here from the Deep4Chem optical property database.

The series can be described thus: solvent given as SMILES.

Take `COc1ccc(C2=C3C=CC(C)=[N+]3[B-](F)(F)n3c(C)ccc32)cc1`: the emission maximum (in C1CCCCC1) stood at 521 nm; the emission maximum (in C1CCOC1) was determined as 521 nm; the emission maximum (in CC#N) was found to be 517 nm; the emission maximum (in CCOC(C)=O) stood at 518 nm; the emission maximum (in CO) turned out to be 518 nm; the emission maximum (in Cc1ccccc1) was determined as 524 nm. In addition, the emission maximum (in ClC(Cl)Cl) stood at 523 nm.
In the case of `CCCCCCCCCCCCN1C(=O)c2c(c3ccc4cc(-c5ccc(Cl)cc5)c(OC)cc4c3c3c2ccc2cc(-c4ccc(Cl)cc4)c(OC)cc23)C1=O`, the emission maximum (in ClCCl) turned out to be 526 nm.
Still for that read-out and setting: in the case of `NC1=N/C(=N\c2ccccn2)c2cccc3cccc1c23` it was 506 nm.
Take `Cc1cc(=O)oc2cc3c4ccc(C(C)(C)C)cc4c4cc(C(C)(C)C)ccc4c3cc12`: the emission maximum (in ClC(Cl)Cl) is recorded as 423 nm.
In the case of `CC/[NH+]=c1\cc2oc3cc(NCCC(=O)O)c4ccccc4c3nc-2cc1C`, the emission maximum reads like this: (in CCO) 644 nm; (in O) 652 nm.
Regarding `Brc1ccc(-c2pc3ccccc3s2)cc1` (stereo unspecified), the emission maximum (in CC#N) was found to be 439 nm.
With `CC1(C)c2ccccc2N(c2ccc(-c3nc(C#N)c(C#N)nc3-c3ccc(N4c5ccccc5C(C)(C)c5ccccc54)cc3)cc2)c2ccccc21`, the emission maximum by setting is: (in Cc1ccccc1) 620 nm; (in c1cc(-c2cccc(-n3c4ccccc4c4ccccc43)c2)cc(-n2c3ccccc3c3ccccc32)c1) 570 nm.
For the compound `Cc1cc(C)c(-c2cc3c(s2)-c2sc(-c4c(C)cc(C)cc4C)cc2P(c2ccccc2)(c2ccccc2)=[O+][B-]3(c2c(C)cc(C)cc2C)c2c(C)cc(C)cc2C)c(C)c1`, the emission maximum (in C1CCOC1) was 472 nm.
The same measure, in the same setting: in the case of `C1=C(c2ccccc2)C=C(c2ccccc2)/C1=C/c1cccc(Oc2ccccc2)c1` it was 506 nm.
`Cc1ccc(-c2nc3c([nH]2)C2=CC(=O)S[C@]2(C)[C@@]2(C)SC(=O)C=C32)cc1` displayed an emission maximum (in CC#N) of 520 nm.
Under “in ClCCl”, `O=[N+]([O-])c1ccc(C#Cc2ccc3ccc(C#Cc4ccc([N+](=O)[O-])cc4)cc3c2)cc1` had an emission maximum of 527 nm.
Regarding `CCC(C)Nc1c2ccc(=[N+]3CCCCC3)cc-2oc2cc(N3CCCCC3)ccc12` (stereo unspecified), under “in ClCCl”, the emission maximum was found to be 537 nm.
Consider `CC(C)[Si](C#Cc1c2ccc(C(C)(C)C)cc2c(C#Cc2c3ccc(C(C)(C)C)cc3c(C#Cc3c4ccc(C(C)(C)C)cc4c(C#C[Si](C(C)C)(C(C)C)C(C)C)c4ccc(C(C)(C)C)cc34)c3ccc(C(C)(C)C)cc23)c2ccc(C(C)(C)C)cc12)(C(C)C)C(C)C`, for which the emission maximum (in Cc1ccccc1) is 589 nm.
The compound `CCCCCCCCCCCCOc1cc2c3c(ccc4c5c(N6CCOCC6)cc6c7c(ccc(c1c34)c75)C(=O)N(C1CCCCC1)C6=O)C(=O)N(C1CCCCC1)C2=O` registered an emission maximum (in ClC(Cl)Cl) of 697 nm.
In turn, `CC(C)(C)c1ccc(-c2ccc(C(C)(C)C)cc2)cc1` had an emission maximum (in C1CCCCC1) of 312 nm.
With `C=Cc1cc2ccc(N(CC)CC)cc2oc1=O`, the emission maximum (in CC#N) stood at 470 nm.
`COc1ccc(C2=Cc3ccccc3P2(=O)c2ccccc2)cc1` (stereo unspecified): the emission maximum was 443 nm (in C1CCOC1) and 454 nm (in ClCCl).
Consider `CN(C)c1ccc(/C=C/C=C/c2nc3ccccc3o2)cc1`, for which the emission maximum reads like this: (in C1COCCO1) 508 nm; (in CC#N) 535 nm; (in CC(C)=O) 531 nm; (in CCCCCC) 474 nm; (in CCCCO) 525 nm; (in CCCO) 526 nm. In addition, the emission maximum runs as follows: (in CCO) 531 nm; (in CN(C)C=O) 538 nm; (in CO) 539 nm; (in Cc1ccccc1) 496 nm; (in ClC(Cl)(Cl)Cl) 491 nm; (in ClC(Cl)Cl) 517 nm. Further, the emission maximum is 525 nm (in ClCCl), 566 nm (in OCC(O)CO), 562 nm (in OCCO) and 503 nm (in c1ccccc1).
Turning to `CCCCCCCCCCCCN1C(=O)c2c(c3ccc4cc(-c5ccc(OC)cc5)c(OC)cc4c3c3c2ccc2cc(-c4ccc(OC)cc4)c(OC)cc23)C1=O`, the emission maximum (in ClCCl) is 532 nm.
`CCn1c2ccccc2c2cc(C#Cc3cc(C#Cc4ccc5c(c4)c4ccccc4n5CC)nc(OC)n3)ccc21` gave an emission maximum (in C1CCOC1) of 445 nm; an emission maximum (in CCOC(C)=O) of 442 nm; an emission maximum (in CN(C)C=O) of 499 nm; an emission maximum (in Cc1ccccc1) of 411 nm; an emission maximum (in ClCCl) of 467 nm.
For the compound `CCOC(=O)C1=C(N)n2c(=O)c3ccccc3c(=O)n2C1c1ccc(C)cc1` (stereo unspecified), the emission maximum (in CS(C)=O) is given as 517 nm.
Regarding `CCCn1c2cccc3oc4cccc5oc6cccc1c6[c+](c45)c32`, the emission maximum (in CC#N) is 560 nm.
In the case of `C#CCN1C(=O)/C(=C/c2cc(OC(C)C)ccc2OC(C)C)N=C1C`, the emission maximum (in C1COCCO1) is 476 nm; the emission maximum (in CC#N) is listed as 508 nm; the emission maximum (in CC(C)=O) amounted to 487 nm; the emission maximum (in CCCCCC) was 440 nm; the emission maximum (in CCCCO) turned out to be 516 nm; the emission maximum (in CCCO) is listed as 521 nm. The emission maximum worked out at 523 nm (in CCO); 475 nm (in CCOC(C)=O); 500 nm (in CN(C)C=O); 538 nm (in CO); 510 nm (in CS(C)=O).
For the setting “in Cc1ccccc1”, `COCCC1=Cc2nc1ccc1[nH]c(cc1CCOC)c1nc(c(OC(C)=O)cc3[nH]c2cc3CCOC)C(CCOC)=C1` yielded an emission maximum of 652 nm.
`CN(C)c1ccc2cc3ccc(N(C)C)cc3nc2c1` had an emission maximum (in O) of 530 nm.
Take `C#CCOc1ccc(/C=C/C2=[N+]3C(=C(c4ccc(N(CC)CC)cc4)c4c(C)cc(/C=C/c5ccc(S(=O)(=O)O)cc5S(=O)(=O)O)n4[B-]3(F)F)C(C)=C2)cc1`: the emission maximum (in O) came out at 660 nm.
With `CCN(CC)c1ccc(-c2nc3c(nc2-c2ccc(B(c4c(C)cc(C)cc4C)c4c(C)cc(C)cc4C)cc2)c2ccccc2n3C)cc1`, the emission maximum by setting is: (in C1CCCCC1) 462 nm; (in C1CCOC1) 528 nm; (in CC(C)=O) 544 nm; (in CS(C)=O) 567 nm; (in Cc1ccccc1) 493 nm.
Take `CCN1C(=O)C(C2C(=O)c3c4ccccc4cc4cc5ccccc5c2c34)SC1=S` (stereo unspecified): the emission maximum (in C1CCOC1) worked out at 570 nm; the emission maximum (in CC#N) came to 593 nm; the emission maximum (in CCCCCC) stood at 539 nm; the emission maximum (in Cc1ccccc1) was 563 nm; the emission maximum (in ClCCl) amounted to 582 nm.
`CC(C)(C)c1ccc2c(c1)c1cc(C(C)(C)C)ccc1n2-c1ccc(N(c2ccc(-c3ccc(-c4ccc(N(c5ccc(-n6c7ccc(C(C)(C)C)cc7c7cc(C(C)(C)C)ccc76)cc5)c5ccc(-n6c7ccc(C(C)(C)C)cc7c7cc(C(C)(C)C)ccc76)cc5)cc4)s3)cc2)c2ccc(-n3c4ccc(C(C)(C)C)cc4c4cc(C(C)(C)C)ccc43)cc2)cc1`: for the setting “in ClCCl”, the emission maximum amounted to 465 nm.
Compound `c1cc2c([nH]c3c4[nH]c5sccc5c4c4nsnc4c23)s1` displayed an emission maximum (in C1CCOC1) of 511 nm; an emission maximum (in CCOC(C)=O) of 510 nm; an emission maximum (in CN(C)C=O) of 547 nm; an emission maximum (in Cc1ccccc1) of 496 nm; an emission maximum (in ClCCl) of 533 nm.
Regarding `Cc1ccc(-c2cc(/C=C/c3ccc(N(c4ccccc4)c4ccccc4)cc3)c(C#N)c(N3CCCCC3)c2)cc1`, the emission maximum (in CS(C)=O) came out at 523 nm.
Turning to `c1ccc([B-]2(c3ccccc3)Oc3ccc4ccccc4c3-c3c4ccccc4cn[n+]32)cc1`, for the setting “in Cc1ccccc1”, the emission maximum was 555 nm.
Regarding `c1csc(-c2c3ccc(=[N+]4CCCCC4)cc-3oc3cc(N4CCCCC4)ccc23)c1`, the emission maximum (in CCO) is given as 606 nm and the emission maximum (in ClCCl) worked out at 603 nm.
With `C[Si](C)(C)C#CC(C#C[Si](C)(C)C)=Cc1ccc(C=C(C#C[Si](C)(C)C)C#C[Si](C)(C)C)s1`, under “in ClC(Cl)Cl”, the emission maximum is listed as 475 nm.
`CCN(CC)c1ccc(C2=C3C(C)=CC(C)=[N+]3[B-](F)(F)n3c(C)cc(C)c32)cc1`: under “in CO”, the emission maximum turned out to be 513 nm.
On to `N#Cc1ccc(N(c2ccccc2)c2ccc3ccc4c(N(c5ccccc5)c5ccc(C#N)cc5)ccc5ccc2c3c54)cc1`, for which the emission maximum (in ClCCl) is recorded as 454 nm.
The compound `Cn1ccc(=O)n(C)c1=O` yielded an emission maximum (in CC#N) of 308 nm.
As to `C(#Cc1ccc(C#Cc2ccc(C#Cc3ccccc3)cc2)cc1)c1ccccc1`, where the note is “in ClC(Cl)Cl”, the emission maximum is on record as 387 nm.
The compound `COc1ccc(C(=O)COc2c(C)c(=O)n3c(=O)c(C)c(COC(=O)c4ccccc4Cl)n23)cc1` returned an emission maximum (in CCO) of 460 nm.
On to `COc1ccc(N(c2ccccc2)c2ccc3ccc4c(N(c5ccccc5)c5ccc(OC)cc5)ccc5ccc2c3c54)cc1`, for which, under “in ClCCl”, the emission maximum stood at 513 nm.
For the compound `CN(C)c1ccc(/C=C/c2cc[n+](CCC[n+]3ccc(/C=C/c4ccc(N(C)C)cc4)cc3)cc2)cc1`, the emission maximum runs as follows: (in CC1COC(=O)O1) 604 nm; (in CC#N) 609 nm; (in CC(C)=O) 608 nm; (in CC(C)O) 594 nm; (in CCO) 601 nm; (in CN(C)C=O) 607 nm. Moreover, the emission maximum was found to be 604 nm (in CO); 610 nm (in CS(C)=O); 566 nm (in ClC(Cl)Cl); 597 nm (in O); 598 nm (in c1ccncc1).
With `C[Si](C)(C)c1ccc2ccc3c([Si](C)(C)C)ccc4ccc1c2c43`, the emission maximum was 380 nm (in CCCCCC), 380 nm (in CO) and 381 nm (in ClCCl).
On to `CCN(CC)c1ccc2c(C(F)(F)F)cc(=O)oc2c1`, for which the emission maximum runs as follows: (in C1CCCCC1) 433 nm; (in CC#N) 501 nm; (in CCO) 509 nm; (in CCOC(C)=O) 479 nm; (in OCC(O)CO) 524 nm.
Take `COc1ccc(-c2nc3ccccc3nc2/C=C/N2CCCC2)s1`: under “in CC#N”, the emission maximum came out at 583.94 nm.
